Assay results published in article PMC8333425, “Discovery of a dual Ras and ARF6 inhibitor from a GPCR endocytosis screen” (Nature Communications, 2021).

Key:
β-arrestin2 = experiment: Confocal microscopy of β-arrestin2-YFP trafficking with AT1R; type: cell-based, human; details: 50 μM; AngII
Protocol: One day before transfection, cells were seeded in 35-mm glass-bottom dishes (MatTek Corporation) at a density of 1 × 10^5 cells per dish. For the recordings of receptor internalization, HEK293 SL cells were transfected with 2 μg of AT1R-YFP. For the recordings of β-arrestin-2 recruitment to the receptor, HEK293SL cells were transfected with 50 ng of β-arrestin2-YFP and 250 ng of Flag-AT1R or HA-B2R. Forty-eight hours post-transfection, cells were serum starved, preincubated with DMSO (0.1% final concentration) or Rasarfin (50 μM) for 30 min at 37 °C. AT1R-expressing cells were stimulated with angiotensinII (AngII; 100 nM) and B2R-expressing cells were stimulated with bradykinin (BK; 1 μM) for 30 min (receptor-YFP) or 15 min (β-arrestin2-YFP). Cells were imaged with Zeiss LSM-510 and/or LSM-710 laser scanning confocal microscope. To detect YFP, […] and BP 505–550 nm emission filter. Images (2048 × 2048) were collected using a 63x oil immersion lens.

K-Ras = K-Ras (Homo sapiens, UniProt P01116); experiment: In vitro mant-GTP exchange assay, purified K-Ras-WT with SOS1; type: biochemical; design: GST (N); FLAG (N); host or cells: E. coli BL21; details: 50 μM
Protocol: Ras activity was assessed in a 384-well black bottom plate using the mant-GTP exchange factor assay that measures the uptake of the fluorescent nucleotide analog N-methylanthraniloyl-GTP (mant-GTP) into GTPases. For Ras activation, 2X exchange buffer, 1.66 μg of purified pGEX-6P-1-H-Ras or pGEX-6P-1-K-Ras-WT or pGEX-6P-1-K-Ras-Y32A were added per well in presence of DMSO, different concentrations of Rasarfin (as indicated) or 50 µM of compounds 21.4, 21.7, or 21.8. Using the Infinite 200 Pro plate reader (Tecan) with filters set at 360 nm and 440 nm for detecting the excitation and emissions, respectively, and temperature set at 20 °C, 5 readings were recorded every 5 s before the addition of either H2O, 40 mM EDTA or 0.66 μg purified SOS1. The fluorescence of mant-GTP uptake was measured every 30 sec for 30 min and quantified as the delta relative fluorescence units (RFU), which was calculated as the RFU post-addition minus the 5 averaged RFU pre-addition, per condition.

AT1R = details: Barbadin 100 µM; cited from earlier work

Sequence of K-Ras (P01116 1-188 isoform P01116-2): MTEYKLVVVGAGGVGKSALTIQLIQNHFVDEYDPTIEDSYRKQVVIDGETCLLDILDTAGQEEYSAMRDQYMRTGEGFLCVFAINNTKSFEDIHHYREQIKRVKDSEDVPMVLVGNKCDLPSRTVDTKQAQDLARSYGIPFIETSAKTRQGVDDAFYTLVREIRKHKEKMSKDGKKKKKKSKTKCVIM

Row | SMILES | β-arrestin trafficking with AT1R into endosomes (microscopy) (β-arrestin2) | SOS-mediated mant-GTP binding onto purified K-Ras (K-Ras) | receptor internalization (AT1R)
1 | CC(C)C(=O)N1CCN(c2ccc(NC(=O)c3cc4ccccc4o3)cc2Cl)CC1 [Compound 21] | prevented β-arrestins’ trafficking with receptors into endosomes | inhibited the SOS-mediated mant-GTP binding | –
2 | Nn1cnc2scc(-c3ccc(Cc4ccccc4)cc3)c2c1=O [Barbadin, reference compound] | – | – | blocked receptor internalization
